According to ChEMBL document CHEMBL1140850, “Structure-activity relationships of lipopolysaccharide sequestration in guanylhydrazone-bearing lipopolyamines” (Bioorg Med Chem, 2009):
Active and inactive are the calls of the source. No cut-off for these calls is given here.

Columns and labels:
J774.A1 = assay: Inhibition of LPS-induced NO production in mouse J774A1 cells by Griess assay; type: functional, cell-based
HEK293 = assay: Inhibition of LPS-induced NF-kappaB nuclear transactivation in HEK293 cells coexpressed with TLR4 assessed as alkaline phosphatase activity by spectrophotometry; type: cell-based; conditions: Homo sapiens
Blood = assay: Inhibition of Escherichia coli 0111:B4 LPS-induced proinflammatory cytokine production in human whole blood after 4 hrs; type: functional, tissue-based
Mus musculus [1] = assay: Toxicity in Escherichia coli 0111:B4 LPS-induced lethality in CF1 mouse at 200 mg/kg, ip after 24 hrs; type: organism-based; design: dose 200 mg/kg, route intraperitoneal; conditions: in vivo
Mus musculus [2] = assay: Toxicity in Escherichia coli 0111:B4 LPS-induced lethality in ip dosed CF1 mouse after 24 hrs; type: organism-based; conditions: in vivo

Compound: CCCCCCCCCCCCCCCCNCCCNCCCCNCCCNCC/C=N/NC(=N)N
- Activity (J774.A1): Active
- Activity (HEK293): Active

Compound: CCCCCCCCCCCCCCCCNC(=N)N/N=C/CCNCCCNCCCCNCCCN.O=C(O)C(F)(F)F
- Activity (J774.A1): Active
- Activity (Blood): Dose-dependent effect
- Activity (Mus musculus [1]): Non-toxic
- Activity (Mus musculus [2]): Dose-dependent effect
- LD100 (Mus musculus [2]): 100 ng
